Data reported in patent US20240175039A1, “ENGINEERING PROBIOTIC FOR DEGRADING URIC ACID, AND CONSTRUCTION METHOD THEREFOR AND USE THEREOF” (SHANDONG UNIVERSITY, priority 2022, published 2024).

Tests used:
[1] = test system: Bacillus subtilis PucLM (complete PucL co-expressed with PucM, wild type; PucM SEQ ID NO: 2); assay: UA degradation kinetics (Km, Vmax), cell extract of EcN::pMCS2-Ptrc-pucLM; assay type: biochemical
Description: (§1) The pucL (Gene ID: 936669) and pucM (Gene ID: 937977) genes from Bacillus subtilis were codon-optimized and synthesized by Beijing Genomics Institute (BGI, Beijing). Asp-214 and Gln-438 of PucL were mutated to Val and Arg, respectively. The mutated pucL was named as pucL^M, and pucL^M was codon-optimized and synthesized by Beijing Genomics Institute (BGI, Beijing). The vhb gene (Protein ID: WP_019959060.1) from Vitreoscilla sp. C1 was codon-optimized and synthesized by Beijing Genomics Institute (BGI, Beijing). The ygfU (Gene ID: 949017) and the katG (Gene ID: 948431) genes were PCR amplified from E. coli MG1655 genomic DNA.
(§2) (1) UA was measured in a buffer solution using a spectrophotometer by directly measuring the absorbance at 293 nm. Firstly, UA standard solutions of 0, 10 μM, 15 μM, 20 μM, 30 μM, 40 μM, 50 μM, 60 μM, and 70 μM were prepared to plot an UA concentration standard curve, obtaining a curve R2 of 0.9997. Subsequently, appropriate dilutions were performed for measurement, and UA concentration was determined.
The activity of PucL^T can be enhanced by the D44V and Q268R mutations. We directly mutated two sites in the complete PucL (PucLM) and co-expressed them with PucM in EcN (EcN::pMCS2-Ptrc-pucL^MM). Determined by using cell extracts, the Vmax of PucL^MM increased by approximately 1.8 times compared to PucLM. […] Due to the increase in Km, the UA degradation ability of the whole cell of EcN::pMCS2-Ptrc-pucL^MM was weakened when the concentration of UA was low (FIG. 2C).

[2] = target: T1, Bacillus subtilis PucL^MM (PucL variant PucL^M, Asp-214 to Val and Gln-438 to Arg (D44V and Q268R in PucL^T), SEQ ID NO: 1, co-expressed with PucM, SEQ ID NO: 2 (Bacillus subtilis, UniProt O32141, D214V/Q438R)); assay: UA degradation kinetics (Km, Vmax), cell extract of EcN::pMCS2-Ptrc-pucL^MM; assay type: biochemical; conditions: cell extracts
T1 sequence (O32141 1-494 D214V/Q438R): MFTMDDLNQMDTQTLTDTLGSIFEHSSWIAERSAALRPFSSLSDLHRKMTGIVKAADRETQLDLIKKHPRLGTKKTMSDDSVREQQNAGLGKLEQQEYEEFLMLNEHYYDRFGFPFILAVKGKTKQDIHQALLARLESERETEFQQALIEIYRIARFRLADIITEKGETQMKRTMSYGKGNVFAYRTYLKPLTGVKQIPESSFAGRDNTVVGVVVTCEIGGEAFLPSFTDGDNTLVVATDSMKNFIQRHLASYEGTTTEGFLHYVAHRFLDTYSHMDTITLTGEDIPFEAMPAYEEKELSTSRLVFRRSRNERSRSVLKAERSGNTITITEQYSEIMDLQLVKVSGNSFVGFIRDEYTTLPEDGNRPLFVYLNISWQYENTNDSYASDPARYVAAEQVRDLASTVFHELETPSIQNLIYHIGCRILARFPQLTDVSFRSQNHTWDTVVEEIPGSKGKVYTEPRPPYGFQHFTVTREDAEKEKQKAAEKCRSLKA
T1 sequence (O32142 1-114 partner): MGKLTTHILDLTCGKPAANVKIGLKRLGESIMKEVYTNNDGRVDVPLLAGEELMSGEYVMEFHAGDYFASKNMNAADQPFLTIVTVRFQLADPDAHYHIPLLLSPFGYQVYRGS
Description: (§3) The urate oxidase gene is specifically PucL^M and PucM, whose nucleotide sequences are shown as SEQ ID NO: 1 and SEQ ID NO: 2, respectively; they act together, and in the present invention, they are named PucL^MM.
as §1
(§4) (1) UA was measured in a buffer solution using a spectrophotometer by directly measuring the absorbance at 293 nm. […] Subsequently, appropriate dilutions were performed for measurement, and UA concentration was determined.
(§5) The activity of PucL^T can be enhanced by the D44V and Q268R mutations. […] Determined by using cell extracts, the Vmax of PucL^MM increased by approximately 1.8 times compared to PucLM. […]

[3] = substrate: O=c1[nH]c(=O)c2[nH]c(=O)[nH]c2[nH]1; assay: UA degradation kinetics (Km, Vmax), cell extract of EcN::pMCS2-Ptrc-pucL^T; assay type: biochemical, Bacillus subtilis; conditions: other: cell extract, recombinant EcN::pMCS2-Ptrc-pucL^T
Description: as §1, §2
The UriC domain of PucL (PucL^T) catalyzes step 1 in the UA degradation (FIG. 1), and steps 2 and 3 can occur spontaneously. […]
as §5

[4] = substrate: O=c1[nH]c(=O)c2[nH]c(=O)[nH]c2[nH]1; assay: UA degradation kinetics (Km, Vmax), cell extract of EcN::pMCS2-Ptrc-pucL^MM; assay type: biochemical, Bacillus subtilis; conditions: other: cell extract, recombinant EcN::pMCS2-Ptrc-pucL^MM
Description: as §3, §1, §4, §5

[5] = cell extract, recombinant EcN::pMCS2-Ptrc-pucLM

O=c1[nH]c(=O)c2[nH]c(=O)[nH]c2[nH]1 [UA, uric acid]
Km [1, 5]: 17.2 µM | Vmax [1, 5]: 13.88 µM/mg/min | Km of PucLM compared with PucL^T ([1]; cell extracts): significantly reduced | Vmax of PucLM compared with PucL^T ([1]; cell extracts): similar | Km increase of PucL^MM compared to PucLM [2]: approximately 2.0 times | Vmax increase of PucL^MM compared to PucLM [2]: approximately 1.8 times

B1: Bacillus subtilis PucL^T (UriC domain of PucL, urate oxidase) (Bacillus subtilis subsp. subtilis str. 168) (protein)
chain: MKRTMSYGKGNVFAYRTYLKPLTGVKQIPESSFAGRDNTVVGVDVTCEIGGEAFLPSFTDGDNTLVVATDSMKNFIQRHLASYEGTTTEGFLHYVAHRFLDTYSHMDTITLTGEDIPFEAMPAYEEKELSTSRLVFRRSRNERSRSVLKAERSGNTITITEQYSEIMDLQLVKVSGNSFVGFIRDEYTTLPEDGNRPLFVYLNISWQYENTNDSYASDPARYVAAEQVRDLASTVFHELETPSIQNLIYHIGCRILARFPQLTDVSFQSQNHTWDTVVEEIPGSKGKVYTEPRPPYGFQHFTVTREDAEKEKQKAAEKCRSLKA
Km [3]: 61.03 µM | Vmax [3]: 12.3 µM/min/mg

B2: Bacillus subtilis PucL^MM (PucL variant PucL^M, Asp-214 to Val and Gln-438 to Arg (D44V and Q268R in PucL^T), SEQ ID NO: 1, co-expressed with PucM, SEQ ID NO: … (protein)
chain: T1 sequence (O32141 1-494 D214V/Q438R)
Km [4]: 52.54 µM | Vmax [4]: 38.6 µM/min/mg
